Experimental findings from patent US12590099B2, “Inhibitors of histone deacetylase useful for the treatment or prevention of HIV infection” (Merck Sharp & Dohme LLC, priority 2018, dated 2026) are described below.

SMILES strings stand for the structures.

Assay type in all cases: biochemical
The target of experiment [1] is T1, Recombinant human HDAC3/SMRT heterodimer (Homo sapiens, UniProt O15379).
T1 construct: FLAG (C); made in house
Kind of experiment: Human HDAC enzyme inhibitor Fluor-de-Lys assay, HDAC3/SMRT.

The next experiment concerns the target T2, Recombinant human HDAC8 (Homo sapiens, UniProt Q9BY41).
T2 construct: purchased Enzo Life Sciences BML-SE145-0100
T2 sequence (Q9BY41 1-377): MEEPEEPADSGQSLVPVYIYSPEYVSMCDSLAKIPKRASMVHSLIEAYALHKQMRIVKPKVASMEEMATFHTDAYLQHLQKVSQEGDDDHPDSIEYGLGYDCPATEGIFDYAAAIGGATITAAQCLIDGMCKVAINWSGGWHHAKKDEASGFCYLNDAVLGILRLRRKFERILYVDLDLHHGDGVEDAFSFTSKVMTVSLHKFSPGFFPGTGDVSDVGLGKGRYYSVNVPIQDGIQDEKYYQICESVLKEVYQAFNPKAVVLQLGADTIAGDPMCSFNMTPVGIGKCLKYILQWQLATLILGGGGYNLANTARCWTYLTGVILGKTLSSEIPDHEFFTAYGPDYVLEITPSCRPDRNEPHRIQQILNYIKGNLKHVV
Briefly: Human HDAC enzyme inhibitor Fluor-de-Lys assay, HDAC8.

In a further experiment the target is T3, HDAC6 (Homo sapiens, UniProt Q9UBN7).
T3 sequence (Q9UBN7 1-1215): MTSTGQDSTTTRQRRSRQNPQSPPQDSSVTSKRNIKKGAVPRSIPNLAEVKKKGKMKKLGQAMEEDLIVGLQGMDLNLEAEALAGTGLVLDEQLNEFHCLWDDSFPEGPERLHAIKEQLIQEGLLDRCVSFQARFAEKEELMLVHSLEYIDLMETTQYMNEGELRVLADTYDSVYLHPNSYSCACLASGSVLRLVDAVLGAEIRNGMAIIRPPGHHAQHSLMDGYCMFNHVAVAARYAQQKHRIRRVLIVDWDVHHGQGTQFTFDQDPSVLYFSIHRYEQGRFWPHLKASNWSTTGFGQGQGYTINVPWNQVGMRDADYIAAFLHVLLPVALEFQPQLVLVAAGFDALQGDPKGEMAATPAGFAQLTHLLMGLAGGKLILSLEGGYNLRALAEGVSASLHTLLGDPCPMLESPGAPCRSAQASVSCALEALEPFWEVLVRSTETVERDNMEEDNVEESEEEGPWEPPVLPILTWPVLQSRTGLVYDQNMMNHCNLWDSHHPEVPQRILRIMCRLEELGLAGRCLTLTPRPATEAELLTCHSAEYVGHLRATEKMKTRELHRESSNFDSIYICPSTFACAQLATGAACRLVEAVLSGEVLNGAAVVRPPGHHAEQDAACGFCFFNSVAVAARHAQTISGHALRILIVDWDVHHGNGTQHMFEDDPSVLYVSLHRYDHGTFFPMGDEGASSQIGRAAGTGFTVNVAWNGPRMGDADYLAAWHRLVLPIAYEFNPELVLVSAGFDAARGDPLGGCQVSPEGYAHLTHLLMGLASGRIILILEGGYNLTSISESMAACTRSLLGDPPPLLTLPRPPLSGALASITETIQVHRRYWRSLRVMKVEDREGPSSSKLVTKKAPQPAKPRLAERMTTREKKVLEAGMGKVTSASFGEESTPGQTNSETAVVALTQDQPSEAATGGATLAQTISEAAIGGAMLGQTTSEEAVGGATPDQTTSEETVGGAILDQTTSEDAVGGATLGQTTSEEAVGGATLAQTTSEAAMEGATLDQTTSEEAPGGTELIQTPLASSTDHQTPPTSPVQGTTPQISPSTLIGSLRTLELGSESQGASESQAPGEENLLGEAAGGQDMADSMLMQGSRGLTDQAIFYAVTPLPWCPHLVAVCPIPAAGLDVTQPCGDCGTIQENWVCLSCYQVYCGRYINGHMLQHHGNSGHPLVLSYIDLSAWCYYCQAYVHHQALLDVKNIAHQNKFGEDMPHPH
Briefly: Human HDAC enzyme inhibitor Fluor-de-Lys assay, HDAC6.

The next experiment has as its target T4, Recombinant human HDAC2 (Homo sapiens, UniProt Q92769).
T4 construct: Full length human HDAC2-FLAG was expressed in baculovirus infected Sf9 cells; FLAG (C); made in house; host or cells: Sf9 (baculovirus)
Kind of experiment: Human HDAC enzyme inhibitor Fluor-de-Lys assay, HDAC2. Put shortly:
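Fluor-de-Lys format at room temperature (23° C.): compounds titrated 10-point, 1:3, preincubated with HDAC before substrate addition. Developer with excess HDAC inhibitor ends the reaction, and trypsin-liberated AMC fluorescence is the read-out.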

The next experiment addresses T5, Recombinant human HDAC1 (Homo sapiens, UniProt Q13547).
T5 construct: FLAG (C); made in house
Briefly: Human HDAC enzyme inhibitor Fluor-de-Lys assay, HDAC1. Put shortly: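 Fluor-de-Lys format at room temperature (23° C.): compounds titrated 10-point, 1:3, preincubated with HDAC before substrate addition; HDAC1 run at 0.3 nM enzyme with 20 μM BML-KI104. Developer with excess HDAC inhibitor ends the reaction, and trypsin-liberated AMC fluorescence is the read-out.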

A word on the IC50: it is the concentration that inhibits the measured activity by half.

T5 sequence (Q13547 whole entry): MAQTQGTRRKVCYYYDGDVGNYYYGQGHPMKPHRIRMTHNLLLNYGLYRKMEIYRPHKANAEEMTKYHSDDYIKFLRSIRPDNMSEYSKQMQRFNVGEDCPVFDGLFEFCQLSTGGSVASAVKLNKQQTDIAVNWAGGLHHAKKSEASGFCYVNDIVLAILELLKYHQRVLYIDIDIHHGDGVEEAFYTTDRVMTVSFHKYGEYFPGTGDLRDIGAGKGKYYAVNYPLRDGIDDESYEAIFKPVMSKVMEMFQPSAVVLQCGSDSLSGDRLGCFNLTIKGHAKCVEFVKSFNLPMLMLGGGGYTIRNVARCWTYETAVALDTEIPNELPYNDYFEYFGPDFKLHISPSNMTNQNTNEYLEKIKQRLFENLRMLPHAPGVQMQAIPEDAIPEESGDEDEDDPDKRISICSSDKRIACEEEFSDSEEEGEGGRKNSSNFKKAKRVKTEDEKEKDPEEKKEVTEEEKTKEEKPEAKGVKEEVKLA
T1 sequence (O15379 whole entry): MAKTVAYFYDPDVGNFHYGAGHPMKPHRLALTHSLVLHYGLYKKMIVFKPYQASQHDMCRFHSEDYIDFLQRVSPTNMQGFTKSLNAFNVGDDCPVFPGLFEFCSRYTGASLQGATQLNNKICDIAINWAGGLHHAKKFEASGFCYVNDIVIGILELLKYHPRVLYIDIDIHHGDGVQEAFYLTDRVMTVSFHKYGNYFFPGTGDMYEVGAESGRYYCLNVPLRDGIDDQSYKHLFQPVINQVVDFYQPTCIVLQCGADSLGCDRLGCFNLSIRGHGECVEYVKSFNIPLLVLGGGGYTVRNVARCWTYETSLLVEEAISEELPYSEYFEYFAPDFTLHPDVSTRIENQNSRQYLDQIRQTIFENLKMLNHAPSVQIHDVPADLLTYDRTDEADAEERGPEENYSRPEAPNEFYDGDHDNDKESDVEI
T1 sequence (Q9Y618 1-899 partner limits assumed): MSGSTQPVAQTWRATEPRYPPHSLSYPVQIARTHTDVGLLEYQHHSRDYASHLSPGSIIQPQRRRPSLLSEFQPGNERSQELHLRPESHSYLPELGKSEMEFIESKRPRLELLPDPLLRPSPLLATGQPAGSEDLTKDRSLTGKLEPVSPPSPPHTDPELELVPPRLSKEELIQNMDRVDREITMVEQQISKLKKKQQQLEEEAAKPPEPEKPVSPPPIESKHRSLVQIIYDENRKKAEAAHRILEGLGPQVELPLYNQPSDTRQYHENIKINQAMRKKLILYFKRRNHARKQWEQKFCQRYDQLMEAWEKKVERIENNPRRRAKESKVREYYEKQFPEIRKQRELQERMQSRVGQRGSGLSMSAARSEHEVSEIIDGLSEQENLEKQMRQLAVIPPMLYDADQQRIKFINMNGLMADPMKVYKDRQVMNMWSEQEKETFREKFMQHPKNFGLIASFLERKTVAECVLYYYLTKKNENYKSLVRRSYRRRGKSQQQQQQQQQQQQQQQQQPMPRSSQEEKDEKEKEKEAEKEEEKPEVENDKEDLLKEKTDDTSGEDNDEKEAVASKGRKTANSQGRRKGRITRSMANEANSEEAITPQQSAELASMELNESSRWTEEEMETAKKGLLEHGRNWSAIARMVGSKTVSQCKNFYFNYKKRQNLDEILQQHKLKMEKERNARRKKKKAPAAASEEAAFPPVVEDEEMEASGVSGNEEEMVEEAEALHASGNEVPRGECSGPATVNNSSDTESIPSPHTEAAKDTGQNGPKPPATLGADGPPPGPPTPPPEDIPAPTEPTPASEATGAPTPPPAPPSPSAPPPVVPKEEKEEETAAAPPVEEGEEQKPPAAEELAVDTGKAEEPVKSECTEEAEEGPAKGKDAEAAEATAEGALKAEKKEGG
T4 sequence (Q92769 whole entry): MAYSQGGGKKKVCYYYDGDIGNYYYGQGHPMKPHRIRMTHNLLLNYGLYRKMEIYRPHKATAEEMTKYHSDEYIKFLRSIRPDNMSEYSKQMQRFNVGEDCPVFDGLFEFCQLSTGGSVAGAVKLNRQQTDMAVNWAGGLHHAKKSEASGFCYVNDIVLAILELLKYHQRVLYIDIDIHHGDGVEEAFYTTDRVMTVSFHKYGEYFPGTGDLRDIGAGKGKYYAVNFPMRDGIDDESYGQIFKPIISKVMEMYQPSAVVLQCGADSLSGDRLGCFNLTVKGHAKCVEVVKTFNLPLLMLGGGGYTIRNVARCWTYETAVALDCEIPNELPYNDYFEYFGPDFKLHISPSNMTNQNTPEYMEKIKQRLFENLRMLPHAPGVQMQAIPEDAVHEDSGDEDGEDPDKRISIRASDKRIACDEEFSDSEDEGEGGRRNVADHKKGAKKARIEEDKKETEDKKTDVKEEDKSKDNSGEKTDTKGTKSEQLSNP

In the case of `CCC(=O)CCCCC[C@H](NC(=O)[C@H]1CC[C@]2(CC1)OC(=O)c1cccnc12)c1ncc(-c2ccc3nc(C4CC4)ccc3c2)o1` [Compound 123], the 50% inhibitory concentration (IC50) in experiment [1] was 7.59 nM; at Recombinant human HDAC8, over 15 µM; against HDAC6 it was over 15 µM; at Recombinant human HDAC2, 94.6 nM; at Recombinant human HDAC1, 34.8 nM.
For the compound `CCC(=O)CCCCC[C@H](NC(=O)[C@H]1CC12CCN(CC)CC2)c1ncc(-c2ccc3c(=O)n(C(C)C)ccc3c2)[nH]1` [Compound 126], the IC50 worked out at 0.19 nM in experiment [1]; 6.48 µM on Recombinant human HDAC8; 18.1 µM at HDAC6; 1.3 nM on Recombinant human HDAC2; 0.19 nM at Recombinant human HDAC1.
As for `CCC(=O)CCCCC[C@H](NC(=O)[C@H]1CC12CCN(CC)CC2)c1ncc(-c2ccc(-c3cnc(C4CC4)cn3)cc2)o1` [Compound 129, (1S)—N-[(1S)-1-{5-[4-(5-cyclopropylpyrazin-2-yl)phenyl]-1,3-oxazol-2-yl}-7-oxononyl]-6-ethyl-6-azaspiro[2.5]octane-1-carboxamide], the IC50 is 14.2 nM in experiment [1]; 7.72 µM on Recombinant human HDAC8; over 15 µM against HDAC6; 89 nM at Recombinant human HDAC2; 27 nM at Recombinant human HDAC1.
For `CC(O)C(=O)CCCCC[C@H](NC(=O)[C@H]1CC12CCN(C)CC2)c1nc(-c2ccc(F)cc2)c[nH]1` (stereo partly drawn) [Compound 134, (1S)—N-{(1S)-1-[4-(4-fluorophenyl)-1H-imidazol-2-yl]-8-hydroxy-7-oxononyl}-6-methyl-6-azaspiro[2.5]octane-1-carboxamide] the same measures were 4 nM, 0.574 µM, 1.76 µM, 51.6 nM and 10.5 nM.
Consider `CCC(=O)CCCCC[C@H](NC(=O)C1=NOC2(CCN(C)CC2)C1)c1ncc(-c2ccc3nc(C4CC4)ccc3c2)o1` [Compound 135], for which the IC50 was 11 nM in experiment [1]; 18.3 µM on Recombinant human HDAC8; over 15 µM against HDAC6; 43.5 nM on Recombinant human HDAC2; 14.6 nM on Recombinant human HDAC1.
As for `CCC(=O)CCCCC[C@H](NC(=O)C1=NOC2(CCN(C(C)C)CC2)C1)c1ncc(-c2ccc3nc(C4CC4)ccc3c2)o1` [Compound 136], the IC50 was 6.41 nM in experiment [1]; 4.8 µM on Recombinant human HDAC8; over 4.5 µM against HDAC6; 31.2 nM on Recombinant human HDAC2; 10.3 nM at Recombinant human HDAC1.
For `CCC(=O)CCCCC[C@H](NC(=O)[C@H]1CC12CCN(C)CC2)c1ncc(-c2ccc3c(=O)n(C)ccc3c2)o1` [Compound 137], in that order: 4.72 nM, 33.5 µM, 2.76 µM, 17.2 nM and 7.78 nM.
Turning to `CCC(=O)CCCCC[C@H](NC(=O)[C@H]1CC12CCN(C)CC2)c1ncc(-c2ccc3oc(=O)ccc3c2)[nH]1` [Compound 138], the IC50 was found to be 1.62 nM in experiment [1]; 10.1 µM at Recombinant human HDAC8; 1.47 µM against HDAC6; 7.9 nM on Recombinant human HDAC2; 1.32 nM at Recombinant human HDAC1.
In the case of `CCC(=O)CCCCC[C@H](NC(=O)[C@H]1CC12CCN(C)CC2)c1ncc(-c2ccc(C3CC3)nc2)[nH]1` [Compound 139], the IC50 in experiment [1] stood at 2.39 nM; on Recombinant human HDAC8 it was 12 µM; on HDAC6 it was 4.45 µM; on Recombinant human HDAC2 it was 26.1 nM; on Recombinant human HDAC1, 5.28 nM.
Consider `CCC(=O)CCCCC[C@H](NC(=O)[C@H]1CC12CCN(C)CC2)c1ncc(-c2ccc3ncc(Cl)cc3c2)[nH]1` [Compound 140], for which the IC50 in experiment [1] is 0.95 nM; on Recombinant human HDAC8, 4.11 µM; against HDAC6 it was 0.611 µM; on Recombinant human HDAC2, 4.5 nM; at Recombinant human HDAC1, 0.97 nM.
Turning to `CCC(=O)CCCCC[C@H](NC(=O)[C@H]1CC[C@]2(CC1)OC(=O)c1ncccc12)c1ncc(-c2cc3ccccc3nc2OC)[nH]1` [Compound 141], the IC50 in experiment [1] worked out at 1.98 nM; on Recombinant human HDAC8 it was 2.11 µM; at HDAC6, 1.49 µM; on Recombinant human HDAC2, 38.4 nM; at Recombinant human HDAC1, 12.2 nM.
For `CCC(=O)CCCCC[C@H](NC(=O)[C@H]1CC12CCN(C)CC2)c1ncc(-c2ccc(-c3ccc(C4CC4)nc3)cc2)o1` [Compound 143], in that order: 32 nM, 13.1 µM, 3.66 µM, 207 nM and 65.1 nM.
For `CCC(=O)CCCCC[C@H](NC(=O)C1CC2(CCN(C)CC2)C1)c1ncc(-c2ccc3nn(C)cc3c2)[nH]1` [Compound 145] the same measures were 2.61 nM, 4.27 µM, 5.76 µM, 12.6 nM and 5.85 nM.
For `CCC(=O)CCCCC[C@H](NC(=O)[C@H]1CC12CCN(C)CC2)c1ncc(-c2ccc3nc(C4CC4)sc3c2)[nH]1` [Compound 146], in that order: 0.64 nM, 7.71 µM, 7.73 µM, 3.3 nM and 1.06 nM.
Regarding `CCC(=O)CCCCC[C@H](NC(=O)C1CC2(C1)CN(C)C2)c1ncc(-c2ccc3nn(C)cc3c2)[nH]1` [Compound 147], the IC50 in experiment [1] is under 1.5 nM; on Recombinant human HDAC8 it was 2.77 µM; against HDAC6, 3.66 µM; on Recombinant human HDAC2, 10.3 nM; at Recombinant human HDAC1, 2.29 nM.
For `CCC(=O)CCCCC[C@H](NC(=O)[C@H]1CC12CCN(C)CC2)c1ncc(-c2ccc3nc(CC)sc3c2)[nH]1` [Compound 149], in that order: 0.62 nM, 2.72 µM, 3.66 µM, 3.9 nM and 0.5 nM.
With `CCC(=O)CCCCC[C@H](NC(=O)[C@H]1CC12CCN(CC)CC2)c1ncc(-c2ccc3c(=O)n(C4CC4)ccc3c2)[nH]1` [Compound 150], the IC50 in experiment [1] turned out to be 0.25 nM; at Recombinant human HDAC8, 4.37 µM; against HDAC6, 7.05 µM; at Recombinant human HDAC2 it was 1.4 nM; on Recombinant human HDAC1, 0.19 nM.
On to `CCC(=O)CCCCC[C@H](NC(=O)[C@H]1CC12CCN(CC)CC2)c1ncc(-c2ccc3c(=O)n(C4CC4)ccc3c2)o1` [Compound 153], for which the IC50 is 6.14 nM in experiment [1]; over 15 µM at Recombinant human HDAC8; 10.4 µM against HDAC6; 13.5 nM on Recombinant human HDAC2; 5.44 nM on Recombinant human HDAC1.
For `CCC(=O)CCCCC[C@H](NC(=O)C1=NOC2(CCN(C)CC2)C1)c1ncc(-c2ccc3nn(C)cc3c2)[nH]1` [Compound 154] the same measures were 2.76 nM, 12.1 µM, 18.1 µM, 19.5 nM and 6.03 nM.
For `CCC(=O)CCCCC[C@H](NC(=O)CN1CCC2(CC1)CC2)c1ncc(-c2ccc3nn(C)cc3c2)[nH]1` [Compound 155], in that order: 2.05 nM, 8.13 µM, 8.94 µM, 18.4 nM and 6.91 nM.
